Measured values reported in ChEMBL document CHEMBL1134155, “Synthesis and HIV-1 integrase inhibitory activities of catechol and bis-catechol derivatives” (Bioorg Med Chem Lett, 2001).

Tests used:
CCRF-CEM = assay: Tested for antiviral activity against Human Immunodeficiency virus (HIV-1) replication in CEM cells.; type: functional, cell-based
[1] = molecular target: Human immunodeficiency virus type 1 integrase (Human immunodeficiency virus 1, UniProt Q7ZJM1); assay: Inhibition of human immunodeficiency virus - 1 (HIV-1) integrase
Human immunodeficiency virus type 1 integrase, sequence (Q7ZJM1 whole entry): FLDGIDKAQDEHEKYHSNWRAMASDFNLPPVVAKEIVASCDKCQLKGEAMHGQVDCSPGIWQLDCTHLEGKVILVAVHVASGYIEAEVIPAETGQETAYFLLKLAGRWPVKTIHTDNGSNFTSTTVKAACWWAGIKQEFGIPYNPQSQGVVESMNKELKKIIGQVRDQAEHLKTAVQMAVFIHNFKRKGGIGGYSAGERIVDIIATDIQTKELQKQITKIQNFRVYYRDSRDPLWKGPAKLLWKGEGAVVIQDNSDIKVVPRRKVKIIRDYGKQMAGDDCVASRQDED

[2] = Cytotoxicity in a cell viability MTT assay; type: functional; details: read-out: TC50 (the source's name)

Structure (SMILES) | IC50 (CCRF-CEM) [µM] | IC50 [1] [µM] | CC50 [2] [µM]
Cc1cc2cc(O)c(O)cc2c(C)c1-c1ccccc1C(F)(F)F | 10.3 | 22 | 13.6
Cc1ccc(-c2c(C)cc3cc(O)c(O)cc3c2C)cc1 | – | 84 | –
Cc1cc2ccccc2c(C)c1-c1ccc(O)c(O)c1 | – | 500 | –
Oc1cc2c(cc1O)C1Cc3cc(O)c(O)cc3C(C2)O1 | 98 | 1.3 | > 100
Cc1cc2cc(O)c(O)cc2c(C)c1-c1cccc(C(F)(F)F)c1 | 5.7 | 13 | 72.6
Cc1cc2c(F)cccc2c(C)c1-c1ccc(O)c(O)c1 | – | 500 | –
Cc1cc2ccc(F)cc2c(C)c1-c1ccc(O)c(O)c1 | – | 500 | –
Cc1cc2cc(O)c(O)cc2c(C)c1-c1ccc(F)cc1 | – | 138 | –
Cc1cc2cc(O)c(O)cc2c(C)c1-c1ccc(C(F)(F)F)cc1 | 10.5 | 21 | 19
Oc1ccc(-c2ccc3cc(O)c(O)cc3c2)cc1O | 9.9 | 2.1 | 51
Cc1cc2cc(O)c(O)cc2c(C)c1-c1ccccc1F | – | 500 | –
Cc1cc2cc(O)c(O)cc2c(C)c1-c1ccccc1 | – | 76 | –
Cc1ccc2cc(C)c(-c3ccc(O)c(O)c3)c(C)c2c1 | – | 157 | –
Cc1cc2cc(O)c(O)cc2c(C)c1-c1ccc(O)c(O)c1 | 8.7 | 23 | 33
